According to patent US12233161B1, “Lipids and lipid nanoparticle formulations” (LONGUIDE BIOPHARMA CORPORATION, priority 2024, dated 2025):
Values belong to the compound of their own block, whether it stands above or below them.

Key:
mice = test: In vivo delivery of FLuc-mRNA lipid nanoparticles in mice, in vivo imaging (IVIS); conditions: for organ targeting specificity (spleen or lung), in words: Table 3, Fluc-mRNA, various formulations
Summary of the method: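 Mice (n=3) received about 75 μL FLuc-mRNA LNP per mouse intramuscularly (rectus femoris), intravenously (tail vein), intraperitoneally or subcutaneously (back). After injection, D-luciferin (200 μL, 15 mg/mL) was given i.p. 10-15 min before IVIS imaging.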

[1] = Particle size and PDI of nucleic acid lipid nanoparticle preparations by dynamic light scattering; type: physicochemical
Description: The 7.5 μL nucleic acid lipid nanoparticle solution (containing approximately 0.04 mg/mL mRNA) was taken and added with 200 μL ultrapure water, mixed by gentle blowing using a pipette tip, and the particle size of the nanopreparation was detected by dynamic lightscattering (DLS) using a Malvern Dynamic Light Scattering Instrument (Malvern Instruments Ltd., ZEN3700, UK).
27.5 μL nucleic acid lipid nanoparticle solution (containing about 0.04 mg/mL mRNA) was taken and added with 200 μL ultrapure water. A pipette tip was used to gently blow the sample and mix well. The particle size of the nanopreparation was detected by Malvern Dynamic Light Scattering Instrument (Malvern Instruments Ltd., ZEN3700, UK). After the detection, the sample was recovered to an EP tube, and 600 μL of ultrapure water was added, gently blown with a pipette tip, and the potential of the nanopreparation was measured by a Malvern particle size meter.

[2] = DMG-PEG2000:DSPC:Chol:Lipid 1.00:11.50:22.50:65.00, N/P 65, IV, liver
[3] = DMG-PEG2000:DSPC:Chol:Lipid 1.00:11.50:22.50:65.00, N/P 65, IV, lung
[4] = DMG-PEG2000:DSPC:Chol:Lipid 1.00:11.50:22.50:65.00, N/P 65, IV, spleen
[5] = DMG-PEG2000:DSPC:Chol:Lipid 2.50:11.50:51.00:35.00, N/P 50, IV, liver
[6] = DMG-PEG2000:DSPC:Chol:Lipid 2.50:11.50:51.00:35.00, N/P 50, IV, lung
[7] = DMG-PEG2000:DSPC:Chol:Lipid 2.50:11.50:51.00:35.00, N/P 50, IV, spleen
[8] = DMG-PEG2000:DSPC:Chol:Lipid 1.00:11.50:22.50:65.00, N/P 65, mRNA LNP
[9] = DMG-PEG2000:DSPC:Chol:Lipid 1.00:16.00:48.00:35.00, N/P 35, mRNA LNP
[10] = DMG-PEG2000:DSPC:Chol:Lipid 1.00:16.00:63.00:20.00, N/P 35, mRNA LNP
[11] = DMG-PEG2000:DSPC:Chol:Lipid 2.50:11.50:51.00:35.00, N/P 50, mRNA LNP
[12] = DMG-PEG2000:DSPC:Chol:compound 1.00:10.00:33.00:56.00, N/P 42
[13] = DMG-PEG2000:DSPC:Chol:Lipid 1.00:8.00:51.00:40.00, N/P 6.7, IV, liver
[14] = DMG-PEG2000:DSPC:Chol:Lipid 1.00:8.00:51.00:40.00, N/P 6.7, IV, lung
[15] = DMG-PEG2000:DSPC:Chol:Lipid 1.00:8.00:51.00:40.00, N/P 6.7, IV, spleen
[16] = DMG-PEG2000:DSPC:Chol:Lipid 1.50:8.00:30.50:60.00, N/P 8.3, IV, liver
[17] = DMG-PEG2000:DSPC:Chol:Lipid 1.50:8.00:30.50:60.00, N/P 8.3, IV, lung
[18] = DMG-PEG2000:DSPC:Chol:Lipid 1.50:8.00:30.50:60.00, N/P 8.3, IV, spleen
[19] = DMG-PEG2000:DSPC:Chol:Lipid 1.00:8.00:51.00:40.00, N/P 6.7, mRNA LNP
[20] = DMG-PEG2000:DSPC:Chol:Lipid 1.50:8.00:30.50:60.00, N/P 8.3, mRNA LNP
[21] = DMG-PEG2000:DSPC:Chol:Lipid 1.63:12.99:45.38:40.00, N/P 25, mRNA LNP
[22] = Fluc-mRNA LNP, route IM, organ: liver, formulation, molar ratio and N/P as in the table
[23] = Fluc-mRNA LNP, route IM, organ: lung, formulation, molar ratio and N/P as in the table
[24] = Fluc-mRNA LNP, route IM, organ: spleen, formulation, molar ratio and N/P as in the table
[25] = Fluc-mRNA LNP, route IV, organ: body, formulation, molar ratio and N/P as in the table
[26] = Fluc-mRNA LNP, route IV, organ: liver, formulation, molar ratio and N/P as in the table
[27] = Fluc-mRNA LNP, route IV, organ: lung, formulation, molar ratio and N/P as in the table
[28] = Fluc-mRNA LNP, route IV, organ: spleen, formulation, molar ratio and N/P as in the table

PDI [1, 8]: 0.10 ± 0.02 | Particle size [1, 8]: 87.42 ± 0.32 nm | PDI [1, 9]: 0.11 ± 0.02 | Particle size [1, 9]: 115.10 ± 0.87 nm | PDI [1, 10]: 0.11 ± 0.02 | Particle size [1, 10]: 135.03 ± 0.67 nm | PDI [1, 11]: 0.12 ± 0.01 | Particle size [1, 11]: 122.50 ± 1.15 nm | PDI [1, 12]: 0.08 | Particle size (nm) [1, 12]: 101.60 nm
SMILES: CCCCCCCCCCNC(=O)C(O)CN(CCCN(C)CCCN(CC(O)C(=O)NCCCCCCCCCC)CC(O)C(=O)NCCCCCCCCCC)CC(O)C(=O)NCCCCCCCCCC (stereo not drawn) [Compound L0265]
IVIS (mice; DMG-PEG2000:DSPC:Chol:Lipid 1.00:11.50:22.50:65.00, N/P 65, IV, body): 1.59 × 10^8 | % of organ targeting (mice; [2]): 0.76% | IVIS (mice; [2]): 7.76 × 10^6 | % of organ targeting (mice; [3]): 97.75% | IVIS (mice; [3]): 1.00 × 10^9 | % of organ targeting (mice; [4]): 1.50% | IVIS (mice; [4]): 1.53 × 10^7 | IVIS (mice; DMG-PEG2000:DSPC:Chol:Lipid 1.00:16.00:48.00:35.00, N/P 35, IM, whole body scan): 6.15 × 10^7 | IVIS (mice; DMG-PEG2000:DSPC:Chol:Lipid 1.00:16.00:63.00:20.00, N/P 35, IM, whole body scan): 6.47 × 10^6 | IVIS (mice; DMG-PEG2000:DSPC:Chol:Lipid 2.50:11.50:51.00:35.00, N/P 50, IV, body): 4.45 × 10^7 | % of organ targeting (mice; [5]): 21.35% | IVIS (mice; [5]): 6.87 × 10^6 | % of organ targeting (mice; [6]): 20.23% | IVIS (mice; [6]): 6.51 × 10^6 | % of organ targeting (mice; [7]): 58.42% | IVIS (mice; [7]): 1.88 × 10^7 | IVIS (mice; IV, body, DMG-PEG2000:DSPC:Chol:compound 1.00:10.00:33.00:56.00, N/P 42, Fluc-mRNA): 2.04E+08 | % of organ targeting (mice; IV, liver, DMG-PEG2000:DSPC:Chol:compound 1.00:10.00:33.00:56.00, N/P 42): 0.55% | IVIS (mice; IV, liver, DMG-PEG2000:DSPC:Chol:compound 1.00:10.00:33.00:56.00, N/P 42, Fluc-mRNA): 2.18E+06 | % of organ targeting (mice; IV, lung, DMG-PEG2000:DSPC:Chol:compound 1.00:10.00:33.00:56.00, N/P 42): 98.43% | IVIS (mice; IV, lung, DMG-PEG2000:DSPC:Chol:compound 1.00:10.00:33.00:56.00, N/P 42, Fluc-mRNA): 3.94E+08 | % of organ targeting (mice; IV, spleen, DMG-PEG2000:DSPC:Chol:compound 1.00:10.00:33.00:56.00, N/P 42): 1.03% | IVIS (mice; IV, spleen, DMG-PEG2000:DSPC:Chol:compound 1.00:10.00:33.00:56.00, N/P 42, Fluc-mRNA): 4.11E+06 | in vivo delivery efficiency as compared to the benchmark compound SM102 (mice; certain formulations, Table 2): superior in vivo delivery efficiency | tissue-targeting specificity (lung vs spleen depending on molar percentage of compound) (mice; certain formulations, Table 2): strong tissue-targeting specificity

PDI [1, 19]: 0.10 ± 0.01 | Particle size [1, 19]: 80.47 ± 1.22 nm | PDI [1, 20]: 0.17 ± 0.02 | Particle size [1, 20]: 108.70 ± 0.82 nm | PDI [1, 21]: 0.17 ± 0.01 | Particle size [1, 21]: 85.98 ± 1.18 nm
SMILES: CCCCCCCCCCNC(=O)C(O)CN(CCN(C)CCN(CC(O)C(=O)NCCCCCCCCCC)CC(O)C(=O)NCCCCCCCCCC)CC(O)C(=O)NCCCCCCCCCC (stereo not drawn) [Compound L0266]
IVIS (mice; DMG-PEG2000:DSPC:Chol:Lipid 1.00:8.00:51.00:40.00, N/P 6.7, IV, body): 3.13 × 10^7 | % of organ targeting (mice; [13]): 28.98% | IVIS (mice; [13]): 3.13 × 10^6 | % of organ targeting (mice; [14]): 24.44% | IVIS (mice; [14]): 2.64 × 10^6 | % of organ targeting (mice; [15]): 46.57% | IVIS (mice; [15]): 5.03 × 10^6 | IVIS (mice; DMG-PEG2000:DSPC:Chol:Lipid 1.50:8.00:30.50:60.00, N/P 8.3, IV, body): 2.53 × 10^7 | % of organ targeting (mice; [16]): 3.53% | IVIS (mice; [16]): 1.72 × 10^6 | % of organ targeting (mice; [17]): 89.03% | IVIS (mice; [17]): 4.34 × 10^7 | % of organ targeting (mice; [18]): 7.45% | IVIS (mice; [18]): 3.63 × 10^6 | IVIS (mice; DMG-PEG2000:DSPC:Chol:Lipid 1.63:12.99:45.38:40.00, N/P 25, IM, whole body scan): 2.20 × 10^6 | tissue-targeting specificity (lung vs spleen depending on molar percentage of compound) (mice; certain formulations, Table 2): strong tissue-targeting specificity

SMILES: CCCCCCCC(CCCCCCC)OC(=O)CCCNC(=O)C(O)CN(CCCN(CC(O)C(=O)NCCCC(=O)OC(CCCCCCC)CCCCCCC)CC(O)C(=O)NCCCC(=O)OC(CCCCCCC)CCCCCCC)CCCN(CC(O)C(=O)NCCCC(=O)OC(CCCCCCC)CCCCCCC)CC(O)C(=O)NCCCC(=O)OC(CCCCCCC)CCCCCCC (stereo not drawn) [Compound L0384]
% of organ targeting (mice; [22]): 29.97% | IVIS (mice; [22]): 2.35E+05 | % of organ targeting (mice; [23]): 13.02% | IVIS (mice; [23]): 1.02E+05 | IVIS (mice; Fluc-mRNA LNP, route IM, organ: muscle, formulation, molar ratio and N/P as in the table): 2.75E+07 | % of organ targeting (mice; [24]): 57.01% | IVIS (mice; [24]): 4.47E+05 | IVIS (mice; [25]): 4.54E+08 | % of organ targeting (mice; [26]): 54.57% | IVIS (mice; [26]): 1.50E+08 | % of organ targeting (mice; [27]): 0.39% | IVIS (mice; [27]): 1.09E+06 | % of organ targeting (mice; [28]): 45.03% | IVIS (mice; [28]): 1.24E+08 | organ targeting specificity (spleen or lung), in words (mice): strong targeting specificity to deliver to spleen

SMILES: CCCCCCCCCCOC(=O)CCCNC(=O)C(O)CN(CCCN(C)CCCN(CC(O)C(=O)NCCCC(=O)OCCCCCCCCCC)CC(O)C(=O)NCCCC(=O)OCCCCCCCCCC)CC(O)C(=O)NCCCC(=O)OCCCCCCCCCC (stereo not drawn) [Compound L0385]
IVIS (mice; Fluc-mRNA LNP, route IM, organ not given, formulation, molar ratio and N/P as in the table): 1.14E+06 | IVIS (mice; [25]): 8.17E+07 | % of organ targeting (mice; [26]): 0.90% | IVIS (mice; [26]): 2.51E+06 | % of organ targeting (mice; [27]): 98.40% | IVIS (mice; [27]): 2.74E+08 | % of organ targeting (mice; [28]): 0.70% | IVIS (mice; [28]): 1.94E+06 | organ targeting specificity (spleen or lung), in words (mice): more selective towards the lung
